The target of one test is Recombinant human FGFR1 (Homo sapiens, UniProt P11362). Description: Transcreener Kinase Assay of FGFR1. It counts as biochemical. The procedure: (§1) • 1. […] Prepare Solution • Test compounds were solved in DMSO and were diluted with assay buffer to 5 folds of final concentration keeping the DMSO concentration at 5%. Further dilution are needed to make final concentrations are at 1, 0.33, 0.11, 0.037, 0.012, 0.004, 0.0014, 0.0005 μM; (the final concentration of DMSO is 1%). • Enzyme/Substrate stock Preparation: Recombinant human FGFR1 and Poly E4Y are both diluted in assay buffer.
• 3. Enzymatic Reaction • In a 96-well plate, add 5 μL of diluted solution of test compound or control solution. (positive control: 5 μL of 5% DMSO; negative control: 5 μL of 500 mM EDTA) into desired wells respectively; • Add 10 μL of Enzyme/Substrate stock into each well; • Add 10 μL of ATP Diluents to initiate the enzyme reaction and vortex the plate immediately on a plate shaker; • For the wells to make standard curve, add 5 μL of 5% DMSO, 10 μL of assay buffer and 10 μL of ATP standard curve stock. • Incubate the plate for 45 min at 28° C. on a plate shaker in a low speed. • 4. […] Excitation wavelength: 610 nm, Emission wavelength: 670 nm. • 5. Data Analysis
(§2) [formula] Note: • [ADP] in Compound well represents the ADP concentration in test compound well. • [ADP] in Positive control well represents the ADP concentration in 5% DMSO well • Conversion of mP value to ADP concentration is calculated based on the formula which determined by standard curve. And mP value is measured by following the instruction provided by BellBrook Labs. (www.bellbrooklabs.com). • 6. IC50: determined with add-in software for Microsoft Excel, XLfit™ (version 2.0) from ID Business Solutions (Guildford, UK).

Another test concerns KG-1. The test is described as follows: Cellular Proliferation Assay (Cell Counting Kit-8), KG-1. It counts as cell-based. The following applies: Homo sapiens; KG-1 cells, 72 hours; read-out: KG1 IC50. As to the method:
(§3) Example 26: Cellular Proliferation Assay
(§4) • 1. Cell Line • KG-1 (ATCC Accession No. CCL-246), • SNU-16 (ATCC Accession No. CRL-5974), • RT-112 (ECACC Accession No. 85061106) • 2. Assay Protocol • FGFR related cancer cell proliferation is measured in 96-well plates using Cell Counting Kit-8 (Dojindo CK04-13). • Seed 30000 cells/well of KG1, 5000 cells/well of SNU16, and 1000 cells/well of RT112 in a volume of 100 μL/well in growth media. • After 24 hours, dilute the test compound to 10, 3.3, 1.1, 0.37, 0.12, 0.04, 0.013, 0.004 μM, keeping the DMSO concentration at 5%. • Add 10 μL of 8-point compound series to the wells of culturing cells. • Incubate at 37° C. and 5% CO2 for 72 hours • Add 10 μL/well of CCkit8 and incubate at 37° C. and 5% CO2 for an hour • Detect the optical density of each well at 450 nm on Labsystems Multiskan K3. • 3. Data Analysis
(§5) [formula] Note: • ODcompound well represents the optical density of cells treated with compound. • ODcell well represents the optical density of cells without compounds treatment.(only 0.5% DMSO) • ODcontrol well represents the optical density of culture media background • IC50: determined with add-in software for Microsoft Excel, XLfit™ (version 2.0) from ID Business Solutions (Guildford, UK).
A general note: Formazan colour is commonly taken as a measure of viable cells.

The next test deals with FGFR3 kinase (Homo sapiens, UniProt P22607). The test is described as follows: Z-Lyte Kinase Assay of FGFR3. Type of test: biochemical. The procedure:
Example 25: Z-Lyte Kinase Assay of FGFR3
• 1. Materials and Reagents:
• 2. Reaction Steps: Plate Map
• 3. […] The final concentrations are 1, 0.33, 0.11, 0.037, 0.012, 0.004, 0.0014, 0.00046 μM, and the final concentration of DMSO is 2%. • 3) Kinase/Peptide Mixture (P/K solution): Prepare Kinase/Peptide Mixture by diluting the kinase to 0.7 μg/ml and the Z-LYTE™ Tyr 4 peptide to 4 μM in 1.33× Kinase Buffer. Mix gently by pipetting. • 4) Phospho-peptide Solution (PP solution): Add 0.4 μl of Z-LYTE™ Tyr 4 Phospho-peptide to 99.6 μl of 1.33× Kinase Buffer. • 5) ATP Solution: Prepare ATP Solution by diluting the 10 mM of ATP in 1.33× Kinase Buffer to 300 uM. • 6) Development Solution: Dilute Development Reagent B with Development Buffer as 1:128. • 4. […] Shake the plate for 30 Sec and centrifuge (1500 rpm, 1 min). • Seal the plate to protect from the light and incubate the plate for 1 hour at RT (25-30° C.). • 2) Development reaction • Add 5 μl of the Development solution to all wells. • Shake the plate for 30 Sec and centrifuge (1500 rpm, 1 min). • Seal the plate to protect from the light and incubate the plate for 1 hour at RT (25-30° C.). • 3) Stop and Read • Add 5 μl of the Stop reagent to all wells. • Shake the plate for 30 Sec and centrifuge (1500 rpm, 1 min). • Measure the value of Coumarin (Ex400 nm, Em445 nm) and fluorescein (Ex400 nm, Em520 nm), respectively. • 5. Data Analysis Emission Ratio(ER)=Coumarin Emission (445 nm)/Fluorescein Emission (520 nm) % Phosphorylation=1−[ER×C3520nm-C3445nm]/[(C1445nm-C3445nm)+ER×(C3520nm−C1520nm)] Inhibition rate (IR)=1−% Photest Cpd/% PhoC2 • 6. IC50 Value: determined with add-in software for Microsoft Excel, XLfit™ (version 2.0) from ID Business Solutions (Guildford, UK)

For a further test, the system named is RT-112. Description: Cellular Proliferation Assay (Cell Counting Kit-8), RT-112. As to conditions: Homo sapiens; RT-112 cells, 72 hours. It counts as cell-based. As to the method:
as §3, §4, §5

A further test concerns SNU-16. Description: Cellular Proliferation Assay (Cell Counting Kit-8), SNU-16. It counts as cell-based. The following applies: Homo sapiens; SNU-16 cells, 72 hours. The procedure:
as §3, §4, §5

The next test deals with Recombinant human FGFR2 (Homo sapiens, UniProt P21802). Description: Transcreener Kinase Assay of FGFR2. Type of test: biochemical. The procedure:
Example 24: Transcreener Kinase Assay of FGFR2
as §1, with “FGFR2” for “FGFR1”, “buffer. The final concentration is 0.3 ng/μL for FGFR2 and 62.5 ng/μL for Poly E4Y. The mixture is being kept in ice before use; • Prepare ATP Diluents, 10 mM ATP is diluted in assay buffer, the final concentration is 25 μM; • Prepare ADP Diluents: diluted ADP (500 μM) in assay buffer, the final concentration is 25 μM; • Prepare ATP standard curve stock as following:” for “buffer.”
• 3. Enzymatic Reaction • In a 96-well plate, add 5 μL of deluted solution of test compound or control solution. (positive control: 5 μL of 5% DMSO; negative control: 5 μL of 500 mM EDTA) into desired wells respectively; • Add 10 μL of Enzyme/Substrate stock into each well; • Add 10 μL of ATP Diluents to initiate the enzyme reaction and vortex the plate immediately on a plate shaker; • For the wells to make standard curve, add 5 μL of 5% DMSO, 10 μL of assay buffer and 10 μL of ATP standard curve stock. • Incubate the plate for 45 min at 28° C. on a plate shaker in a low speed. • 4. Stoping Reaction and Detecting ADP • Detection Mix Preparation: The mixture is made by dilution with MilliQ water; as following: ADP Alexa633 tracer (1:100), ADP antibody (1:158), and stop & detect buffer (1:10); • Tracer Only control Preparation: The mixture is made by dilution with MilliQ water; as following: ADP Alexa633 tracer (1:100), and stop & detect buffer (1: 10) • No Tracer control Preparation: stop & detect buffer is diluted with MilliQ water; by 10 fold. • Add 25 μL of detection mix, Tracer Only control and No Tracer control into corresponding wells, respectively; • Incubate at 28° C. for 1 h, on a plate shaker in a low speed; • Measure florescence polarization (mP) on TECAN F500. Excitation wavelength: 610 nm, Emission wavelength: 670 nm. • 5. Data Analysis
as §2

Read-outs that look alike come from different tables or passages of the source.

Chain of Recombinant human FGFR2 (P21802 22-821): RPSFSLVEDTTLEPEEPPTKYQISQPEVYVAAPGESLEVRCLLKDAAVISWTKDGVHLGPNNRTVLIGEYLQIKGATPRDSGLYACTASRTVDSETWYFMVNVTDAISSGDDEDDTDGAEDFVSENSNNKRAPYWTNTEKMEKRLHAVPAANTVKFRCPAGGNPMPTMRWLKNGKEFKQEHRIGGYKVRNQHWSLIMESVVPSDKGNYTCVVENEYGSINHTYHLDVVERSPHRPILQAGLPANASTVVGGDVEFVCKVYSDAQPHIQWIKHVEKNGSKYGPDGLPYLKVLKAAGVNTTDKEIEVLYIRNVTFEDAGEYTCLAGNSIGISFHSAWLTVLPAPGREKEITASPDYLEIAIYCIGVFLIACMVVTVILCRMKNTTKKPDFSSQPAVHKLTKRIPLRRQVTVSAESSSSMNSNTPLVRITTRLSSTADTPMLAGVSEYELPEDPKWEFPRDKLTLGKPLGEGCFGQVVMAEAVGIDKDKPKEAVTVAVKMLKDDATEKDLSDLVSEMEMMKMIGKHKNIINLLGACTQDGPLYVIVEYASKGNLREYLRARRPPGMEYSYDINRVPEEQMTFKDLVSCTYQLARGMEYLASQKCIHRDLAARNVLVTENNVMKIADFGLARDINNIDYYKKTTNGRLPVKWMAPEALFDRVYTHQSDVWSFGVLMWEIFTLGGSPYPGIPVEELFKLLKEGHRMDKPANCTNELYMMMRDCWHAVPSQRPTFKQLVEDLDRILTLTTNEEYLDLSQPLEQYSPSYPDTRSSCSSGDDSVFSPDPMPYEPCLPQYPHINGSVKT
Chain of Recombinant human FGFR1 (P11362 22-822): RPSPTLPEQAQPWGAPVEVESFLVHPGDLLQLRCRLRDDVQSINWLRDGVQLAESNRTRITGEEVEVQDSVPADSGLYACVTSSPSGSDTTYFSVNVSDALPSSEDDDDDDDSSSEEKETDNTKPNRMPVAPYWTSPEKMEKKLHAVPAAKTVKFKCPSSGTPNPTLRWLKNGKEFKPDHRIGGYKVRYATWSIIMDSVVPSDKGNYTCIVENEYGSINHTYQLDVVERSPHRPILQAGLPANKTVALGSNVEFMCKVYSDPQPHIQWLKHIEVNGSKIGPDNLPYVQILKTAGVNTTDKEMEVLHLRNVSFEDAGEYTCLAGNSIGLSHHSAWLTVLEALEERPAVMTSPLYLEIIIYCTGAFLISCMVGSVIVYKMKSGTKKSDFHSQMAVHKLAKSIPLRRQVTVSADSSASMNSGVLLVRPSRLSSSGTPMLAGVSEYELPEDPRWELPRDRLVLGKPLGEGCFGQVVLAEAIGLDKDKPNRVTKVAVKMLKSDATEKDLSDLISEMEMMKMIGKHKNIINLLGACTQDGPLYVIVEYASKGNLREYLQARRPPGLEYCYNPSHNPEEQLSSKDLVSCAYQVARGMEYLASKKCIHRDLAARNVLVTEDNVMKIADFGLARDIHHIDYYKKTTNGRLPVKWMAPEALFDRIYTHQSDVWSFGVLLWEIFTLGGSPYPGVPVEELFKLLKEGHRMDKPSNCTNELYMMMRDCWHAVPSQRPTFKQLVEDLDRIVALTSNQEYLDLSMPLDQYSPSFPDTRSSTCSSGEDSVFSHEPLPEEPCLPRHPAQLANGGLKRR
Chain of FGFR3 kinase (P22607 23-806): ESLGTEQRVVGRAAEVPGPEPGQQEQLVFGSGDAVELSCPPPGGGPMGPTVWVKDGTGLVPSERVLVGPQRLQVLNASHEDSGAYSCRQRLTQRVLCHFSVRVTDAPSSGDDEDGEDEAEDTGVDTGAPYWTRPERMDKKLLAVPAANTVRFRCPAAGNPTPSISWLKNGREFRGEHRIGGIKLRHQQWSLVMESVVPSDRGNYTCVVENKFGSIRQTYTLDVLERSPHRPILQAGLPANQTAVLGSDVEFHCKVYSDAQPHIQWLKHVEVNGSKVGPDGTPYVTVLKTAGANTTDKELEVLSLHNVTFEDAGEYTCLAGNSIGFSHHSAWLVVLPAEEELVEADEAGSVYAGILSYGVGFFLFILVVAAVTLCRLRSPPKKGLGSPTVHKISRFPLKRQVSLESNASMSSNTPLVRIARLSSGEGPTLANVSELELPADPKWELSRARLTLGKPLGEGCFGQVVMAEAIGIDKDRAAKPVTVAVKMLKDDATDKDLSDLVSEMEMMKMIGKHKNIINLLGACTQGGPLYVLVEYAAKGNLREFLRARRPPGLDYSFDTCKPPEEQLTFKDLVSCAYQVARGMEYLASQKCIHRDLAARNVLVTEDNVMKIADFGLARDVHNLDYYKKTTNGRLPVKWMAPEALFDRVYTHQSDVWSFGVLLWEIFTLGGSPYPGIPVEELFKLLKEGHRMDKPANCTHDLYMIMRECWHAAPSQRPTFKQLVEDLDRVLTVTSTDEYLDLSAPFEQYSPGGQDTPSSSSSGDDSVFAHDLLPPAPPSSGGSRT

A word on the IC50: it is the concentration that gives 50% inhibition. Consider `CNC(=O)c1cc(COc2cnc(Nc3ccc(C(C)=O)cc3)nc2)c(F)c(OC)c1` [Compound 215], for which the IC50 was determined as 44 nM at Recombinant human FGFR1 (read-out: FGFR1 (FP) IC50); 26 nM in the test with KG-1; 65 nM against FGFR3 kinase; 127 nM in the test on RT-112; 72 nM with SNU-16; 20 nM at Recombinant human FGFR2 (read-out: FGFR2 (FP) IC50).

Consider `CCN1CCc2cc(Nc3ncc(OCc4cc(C(=O)NC)cc(OC)c4F)cn3)ccc21` [Compound 224], for which the IC50 at Recombinant human FGFR1 (read-out: FGFR1 (FP) IC50) is 65 nM; in the test on KG-1 it was 63 nM; at FGFR3 kinase, 56 nM; in the test on RT-112 it was 234 nM; in the test with SNU-16 it was 56 nM; on Recombinant human FGFR2 (read-out: FGFR2 (FP) IC50), 27 nM.

For `CNC(=O)c1cc(CCc2cnc(Nc3ccc(N4C[C@@H](C)N[C@@H](C)C4)c(OC)c3)nc2)c(F)c(OC)c1` [Compound 156], the IC50 is 14 nM on Recombinant human FGFR1 (read-out: FGFR1 (FP) IC50); 218 nM in the test on KG-1; 6 nM on FGFR3 kinase; 13 nM in the test with RT-112; 9 nM in the test on SNU-16; 6 nM on Recombinant human FGFR2 (read-out: FGFR2 (FP) IC50).

For the compound `CNC(=O)c1cc(COc2cnc(Nc3ccc(N4CCN(C)CC4)c(OC)c3)nc2)c(Cl)c(OC)c1` [Compound 288], the concentration for half-maximal inhibition (IC50) at Recombinant human FGFR1 (FP) was 6 nM; in the test on KG-1, 2 nM; against FGFR3 kinase (Z-lyte) it was 4 nM; in the test on RT-112, 3 nM; in the test with SNU-16, 2 nM; on Recombinant human FGFR2 (FP), 4 nM.

With `CNC(=O)c1cc(COc2cnc(Nc3ccc(CN4CCOCC4)cc3)nc2)c(F)c(OC)c1` [Compound 242], the IC50 at Recombinant human FGFR1 (read-out: FGFR1 (FP) IC50) is 18 nM; with KG-1, 10 nM; on FGFR3 kinase it was 13 nM; with RT-112, 32 nM; with SNU-16, 14 nM; on Recombinant human FGFR2 (read-out: FGFR2 (FP) IC50) it was 10 nM.

As for `CCN1[C@H](C)CN(c2ccc(Nc3ncc(CCc4cc(C(=O)NC)cc(OC)c4Cl)cn3)cn2)C[C@@H]1C` [Compound 159], the 50% inhibitory concentration (IC50) on Recombinant human FGFR1 (read-out: FGFR1 (FP) IC50) was 23 nM; in the test on KG-1, 26 nM; against FGFR3 kinase, 10 nM; in the test with RT-112, 21 nM; in the test with SNU-16, 6 nM; at Recombinant human FGFR2 (read-out: FGFR2 (FP) IC50), 11 nM.

On to `CNC(=O)c1cc(COc2cnc(Nc3ccc(O[C@@H]4O[C@H](CO)[C@@H](O)[C@H](O)[C@H]4O)cc3)nc2)c(Cl)c(OC)c1` [Compound 303], for which the IC50 is 11 nM at Recombinant human FGFR1 (FP); 40 nM in the test with KG-1; 7 nM on FGFR3 kinase (Z-lyte); 64 nM with RT-112; 23 nM with SNU-16; 7 nM on Recombinant human FGFR2 (FP).

Turning to `CNC(=O)c1cc(COc2cnc(Nc3ccc(-n4cnnc4)cc3)nc2)c(F)c(OC)c1` [Compound 223], the IC50 on Recombinant human FGFR1 (read-out: FGFR1 (FP) IC50) was 29 nM; with KG-1, 102 nM; on FGFR3 kinase it was 20 nM; in the test with RT-112, 729 nM; in the test on SNU-16, 51 nM; at Recombinant human FGFR2 (read-out: FGFR2 (FP) IC50), 18 nM.

Turning to `CNC(=O)c1cc(CCc2cnc(Nc3ccc(NC[C@@H](C)N)cc3)nc2)c(Cl)c(OC)c1` [Compound 92], the IC50 on Recombinant human FGFR1 (read-out: FGFR1 (FP) IC50) was 8 nM; in the test on KG-1, 90 nM; at FGFR3 kinase, 10 nM; in the test on RT-112 it was 87 nM; in the test with SNU-16, 32 nM; at Recombinant human FGFR2 (read-out: FGFR2 (FP) IC50), 8 nM.

As to `CNC(=O)c1cc(COc2cnc(Nc3cccc(NC(C)=O)c3)nc2)c(F)c(OC)c1` [Compound 216], the IC50 on Recombinant human FGFR1 (read-out: FGFR1 (FP) IC50) turned out to be 10 nM; in the test with KG-1, 24 nM; on FGFR3 kinase it was 11 nM; in the test with RT-112, 132 nM; with SNU-16, 20 nM; on Recombinant human FGFR2 (read-out: FGFR2 (FP) IC50) it was 7 nM.

On to `CNC(=O)c1cc(CCc2cnc(Nc3ccc(N4CCN(C)CC4)c(OC)c3)nc2)c(Cl)c(OC)c1` [Compound 177], for which the IC50 stood at 6 nM at Recombinant human FGFR1 (read-out: FGFR1 (FP) IC50); 11 nM with KG-1; 6 nM against FGFR3 kinase; 11 nM in the test on RT-112; 2 nM with SNU-16; 5 nM at Recombinant human FGFR2 (read-out: FGFR2 (FP) IC50).

Turning to `CNC(=O)c1cc(COc2cnc(Nc3ccc(N4C[C@@H](C)N(C)[C@@H](C)C4)cc3)nc2)c(Cl)c(OC)c1` [Compound 286], the IC50 stood at 7 nM at Recombinant human FGFR1 (FP); 8 nM in the test with KG-1; 9 nM against FGFR3 kinase (Z-lyte); 43 nM with RT-112; 16 nM with SNU-16; 6 nM on Recombinant human FGFR2 (FP).
